Experimental data: patent publication EP0092073A1, “Magnesium salt of chenodeoxycholic acid and ursodeoxycholic acid, the process for its preparation, and therapeutic compositions which contain it as active principle” (SCHWARZ ITALIA S.p.A., priority 1982, dated 1983)

Columns and labels:
Type in all cases: in vivo
Parameters in all cases: key to Toxic symptomatology Type: NN = no symptomatology; D = depression
dog = assay: Acute lethality and toxicity, oral administration (gastric probe); conditions: for % mortality at following times after administration 24 h / % mortality at following times after administration 7 days / Toxic symptomatology Type / Toxic symptomatology Latency: oral; for LD50 (mg/kg with reliability limits) 7 days after treatment: po, also printed as greater than 600 Dts/kg
Mus musculus = assay: Lethality and toxicity, endoperitoneal administration; conditions: for % mortality at the following times after administration 24 h / % mortality at the following times after administration 7 days / Toxic symptomatology Latency / Toxic symptomatology Type: endoperitoneal; for LD50 (mg/kg with reliability limits) 7 days after treatment: ip, probit method
Protocol: (§1) Unless otherwise specified, the research was carried out using: a) Mg-UCD capsules as such; b) the powdered contents of Mg-UCD capsules; CDCA (chenodeoxycholic acid) and UDCA (ursodeoxycholic acid) as pure substance which in all cases was partly dissolved and partly suspended under warm conditions (T = 30°C) in 10% gum arabic mucilage (so as to administer 10-40 ml of liquid per kg orally). In certain cases, namely in the experiments involving parenteral administration, the active principle of Mg-UCD, the chenodeoxycholic acid and ursodeoxycholic acid were dissolved in distilled water of slightly alkaline pH (5-10 ml/kg).
(§2) The generally acute lethality, toxicity and tolerability were determined by oral administration of the Mg-UCD (by gastric probe) in the Mus musculus, rat and dog. Animals of both sexes were used, none of which were pregnant. They were fasted for about 12 hours before treatment (but allowing them free access to water). The investigations were carried out using the Mg-UCD in powder form. Comparative investigations were carried out on the rat and Mus musculus using the active principle by endoperitoneal administration, and chenodeoxycholic acid and ursodeoxycholic acid by oral administration (using a gastric probe). Each dose was administered to 20 rats or Mus musculus (10 male and 10 female) and to eight dogs (4 male and 4 female). The animals were observed attentively during the 7 days following administration, and any lethality, toxic symptoms, disturbances, functional variations determinable with the eye, behaviour etc. were noted.
(§3) The LD50 was determined 7 days after administration using the probit method.

rat = assay: as above; conditions: for % mortality at the following times after administration 24 h / % mortality at the following times after administration 7 days / Toxic symptomatology Latency / Toxic symptomatology Type: endoperitoneal; for LD50 (mg/kg with reliability limits) 7 days after treatment: ip, probit method
Protocol: as §1, §2, §3

double magnesium salt of chenodeoxycholic acid and ursodeoxycholic acid [Mg-UCD]
% mortality at following times after administration 24 h (dog; Dog F, 250 mg/kg (60 Dts/kg)): 0% | % mortality at following times after administration 7 days (dog; Dog F, 250 mg/kg (60 Dts/kg)): 0% | Toxic symptomatology Type (dog; Dog F, 250 mg/kg (60 Dts/kg)): NN | % mortality at following times after administration 24 h (dog; Dog F, 2500 mg/kg (600 Dts/kg)): 0% | % mortality at following times after administration 7 days (dog; Dog F, 2500 mg/kg (600 Dts/kg)): 0% | Toxic symptomatology Latency (dog; Dog F, 2500 mg/kg (600 Dts/kg)): 5-10 min | Toxic symptomatology Type (dog; Dog F, 2500 mg/kg (600 Dts/kg)): D | LD50 (mg/kg with reliability limits) 7 days after treatment (dog; Dog F): greater than 2500 mg/kg (greater than 600 Dts/kg) | % mortality at following times after administration 24 h (dog; Dog M, 250 mg/kg (60 Dts/kg)): 0% | % mortality at following times after administration 7 days (dog; Dog M, 250 mg/kg (60 Dts/kg)): 0% | Toxic symptomatology Type (dog; Dog M, 250 mg/kg (60 Dts/kg)): NN | % mortality at following times after administration 24 h (dog; Dog M, 2500 mg/kg (600 Dts/kg)): 0% | % mortality at following times after administration 7 days (dog; Dog M, 2500 mg/kg (600 Dts/kg)): 0% | Toxic symptomatology Latency (dog; Dog M, 2500 mg/kg (600 Dts/kg)): 5-10 min | Toxic symptomatology Type (dog; Dog M, 2500 mg/kg (600 Dts/kg)): D | LD50 (mg/kg with reliability limits) 7 days after treatment (dog; Dog M): greater than 2500 mg/kg (greater than 600 Dts/kg) | any case of death or any significant toxic symptomatology (dog; dog, oral (gastric probe), 7 days following treatment, individual doses up to 2500 mg/kg of active principle (600 Dts/kg)): does not show | % mortality at the following times after administration 24 h (Mus musculus; M. musculus F, 1000 mg/kg): 0% | % mortality at the following times after administration 7 days (Mus musculus; M. musculus F, 1000 mg/kg): 0% | Toxic symptomatology Latency (Mus musculus; M. musculus F, 1000 mg/kg): 1-2 min | Toxic symptomatology Type (Mus musculus; M. musculus F, 1000 mg/kg): D | % mortality at the following times after administration 24 h (Mus musculus; M. musculus F, 2000 mg/kg): 10% | % mortality at the following times after administration 7 days (Mus musculus; M. musculus F, 2000 mg/kg): 10% | Toxic symptomatology Latency (Mus musculus; M. musculus F, 2000 mg/kg): 1-2 min | Toxic symptomatology Type (Mus musculus; M. musculus F, 2000 mg/kg): D | % mortality at the following times after administration 24 h (Mus musculus; M. musculus F, 4000 mg/kg): 70% | % mortality at the following times after administration 7 days (Mus musculus; M. musculus F, 4000 mg/kg): 70% | Toxic symptomatology Latency (Mus musculus; M. musculus F, 4000 mg/kg): 1-2 min | Toxic symptomatology Type (Mus musculus; M. musculus F, 4000 mg/kg): D | LD50 (mg/kg with reliability limits) 7 days after treatment (Mus musculus; M. musculus F): 2455 (1984-3039) mg/kg | % mortality at the following times after administration 24 h (Mus musculus; M. musculus M, 1000 mg/kg): 0% | % mortality at the following times after administration 7 days (Mus musculus; M. musculus M, 1000 mg/kg): 0% | Toxic symptomatology Latency (Mus musculus; M. musculus M, 1000 mg/kg): 1-2 min | Toxic symptomatology Type (Mus musculus; M. musculus M, 1000 mg/kg): D | % mortality at the following times after administration 24 h (Mus musculus; M. musculus M, 2000 mg/kg): 10% | % mortality at the following times after administration 7 days (Mus musculus; M. musculus M, 2000 mg/kg): 10% | Toxic symptomatology Latency (Mus musculus; M. musculus M, 2000 mg/kg): 1-2 min | Toxic symptomatology Type (Mus musculus; M. musculus M, 2000 mg/kg): D | % mortality at the following times after administration 24 h (Mus musculus; M. musculus M, 4000 mg/kg): 60% | % mortality at the following times after administration 7 days (Mus musculus; M. musculus M, 4000 mg/kg): 60% | Toxic symptomatology Latency (Mus musculus; M. musculus M, 4000 mg/kg): 1-2 min | Toxic symptomatology Type (Mus musculus; M. musculus M, 4000 mg/kg): D | LD50 (mg/kg with reliability limits) 7 days after treatment (Mus musculus; M. musculus M): 2455 (1984-3039) mg/kg | % mortality at the following times after administration 24 h (rat; Rat F, 1000 mg/kg): 0% | % mortality at the following times after administration 7 days (rat; Rat F, 1000 mg/kg): 0% | Toxic symptomatology Latency (rat; Rat F, 1000 mg/kg): 1-2 min | Toxic symptomatology Type (rat; Rat F, 1000 mg/kg): D | % mortality at the following times after administration 24 h (rat; Rat F, 2000 mg/kg): 10% | % mortality at the following times after administration 7 days (rat; Rat F, 2000 mg/kg): 10% | Toxic symptomatology Latency (rat; Rat F, 2000 mg/kg): 1-2 min | Toxic symptomatology Type (rat; Rat F, 2000 mg/kg): D | % mortality at the following times after administration 24 h (rat; Rat F, 4000 mg/kg): 60% | % mortality at the following times after administration 7 days (rat; Rat F, 4000 mg/kg): 60% | Toxic symptomatology Latency (rat; Rat F, 4000 mg/kg): 1-2 min | Toxic symptomatology Type (rat; Rat F, 4000 mg/kg): D | LD50 (mg/kg with reliability limits) 7 days after treatment (rat; Rat F): 2449 (2063-2906) mg/kg | % mortality at the following times after administration 24 h (rat; Rat M, 1000 mg/kg): 0% | % mortality at the following times after administration 7 days (rat; Rat M, 1000 mg/kg): 0% | Toxic symptomatology Latency (rat; Rat M, 1000 mg/kg): 1-2 min | Toxic symptomatology Type (rat; Rat M, 1000 mg/kg): D | % mortality at the following times after administration 24 h (rat; Rat M, 2000 mg/kg): 10% | % mortality at the following times after administration 7 days (rat; Rat M, 2000 mg/kg): 10% | Toxic symptomatology Latency (rat; Rat M, 2000 mg/kg): 1-2 min | Toxic symptomatology Type (rat; Rat M, 2000 mg/kg): D | % mortality at the following times after administration 24 h (rat; Rat M, 4000 mg/kg): 70% | % mortality at the following times after administration 7 days (rat; Rat M, 4000 mg/kg): 70% | Toxic symptomatology Latency (rat; Rat M, 4000 mg/kg): 1-2 min | Toxic symptomatology Type (rat; Rat M, 4000 mg/kg): D | LD50 (mg/kg with reliability limits) 7 days after treatment (rat; Rat M): 2288 (1902-2751) mg/kg
